SMILES strings stand for the structures. “Also recorded” adds a separate entry of the source.

Data on one compound can be found in patent US7022484B2, “Methods for treating neuropathological states and neurogenic inflammatory states and methods for identifying compounds useful therein” (Board of Regents, The University of Texas System, priority 2000, dated 2006).

Test [1] has as its system rat arthritis model. Briefly: Knee joint circumference and joint temperature in kaolin/carrageenan knee joint inflammation model. It is filed as in vivo. The note with it: 4 hours after kaolin/carrageenan; spinal pre-treatment. The protocol:
An acute inflammatory response restricted to the knee joint can be induced by the injection of 3% kaolin and 3% carrageenan (in sterile saline; 0.1 ml; pH 7.4) into the joint cavity while the animal is briefly anesthetized with sodium methohexital (Brevital, 60 mg/kg, i.p.). Kaolin and carrageenan were obtained from Fisher Scientific, St. Louis, Mo. The knee joint is flexed manually until the rat awakes (approximately 5–10 minutes). In this arthritis model in the awake rat, localized joint swelling, as well as limping and guarding of the limb, are well developed at 4 hours (Sluka et al., Pain, 59, 95–100 (1994)) when behavioral testing begins.
Knee joint circumference is measured in centimeters (cm) with a flexible tape measure around the center of the knee joint while the joint is held in extension as done with patients in the clinical setting as an indication of increases in joint volume. The knee joints of anesthetized rats are measured before (baseline) and four hours following injection of the knee joint with kaolin and carrageenan.
Temperature readings were documented numerically with a temperature probe after the rat is reanesthetized with sodium pentobarbital (50 mg/kg, i.p.) just prior to perfusion with aldehydes for histological preservation. Comparative temperature differences were made between the baseline temperature and the temperature four hours after induction of inflammation.

In test [2] the test system is NMDA receptor subunit NR1. Put plainly: Immunocytochemical localization of NMDA receptor subunit NR1 in spinal cord of arthritic rats. Particulars: Genistein 1 mM spinal pre-treatment. In kind it is in vivo, rat. An excerpt: Cycloheximide (100 milligrams per kilogram (mg/kg) intraperitoneal (i.p.) was used in some studies to determine if the alterations observed for the NMDA NR1 receptor subunit could be attributed to newly synthesized NR1 protein.
Twenty-four rats in 3 separate groups were used for immunocytochemical studies. One group of rat (n=8) was a naive control. The other 2 groups (n=16) of rats received surgical placement of the microdialysis fiber placement. On the day after microdialysis fiber placement, the animals were treated spinally with either Genistein (1 mM) or vehicle (50% DMSO in aCSF) for 1.5 hours (n=8 for each group). Then the left knee joint of all sixteen rats was injected with 0.1 ml of kaolin and carrageenan.
Animals were anesthetized and transcardially perfused with a brief warm saline rinse followed by fixative solution (4% paraformaldehyde in 0.1 M phosphate buffer, pH 7.4). The tissues were soaked overnight in 30% buffered sucrose and cut at 30 microns on a sliding microtome. For light microscopy, the tissues from animals (n=8) were permeabilized with a 50% buffered ethanol treatment. Tissue sections were then stained immunocytochemically for glutamate receptor subunit NR1 and phospho-NR1. Primary antibodies to be used for staining include anti-NMDA NR1 NMDA receptor (0.5–1 milligrams per milliliter (mg/ml)) purchased from Chemlcon Inc. (Pittsburgh, Pa.). Other neurotransmitter and receptor primary antibodies against NMDA NR2C, mGluR1, and mGluR5 were used as stain specificity controls. The primary antibodies were diluted in phosphate buffered saline (PBS, pH 7.6) with 0.1% BSA for overnight incubation on the spinal cord tissues. After washing in PBS, the tissue sections were incubated in the appropriate secondary antibody, either anti-mouse or anti-rabbit IgG (1:100, 30 minutes) and in avidin-biotin complex (ABC, 1:100, Vector Laboratories, Burlingame, Calif.). Sections were reacted with diaminobenzidine (DAB) solution (1.5 mg/ml) as the chromogen and peroxide (0.5 mg/ml) to produce a dense reaction product. To further intensify the reaction product particularly for visualization of nuclear rings, some tissues were reacted with colloidal gold conjugated IgG and reacted with a silver chloride solution to produce an intense black reaction product (Takizawa et al., J. Histochemistry & Cytochemistry, 42, 1615–1623 (1994)).
Immunocytochemical controls included sections processed in the absence of the primary or secondary antibody or ABC reagents. The specificity of the transmitter antibodies was confirmed by appearance of a single band by Western blot. In addition to use of the C-terminus NR1 antibody from ChemIcon, an antibody directed to the N-terminus of the NR1 protein was used as control (1 mg/ml; BD PharMingen, San Diego, Calif.). […]

Test [3] relates to NMDA currents. The note with it: patch clamp studies; cited from earlier work.
The test system of test [4] is TNFα. Briefly: TNFα release by ELISA from SW982 synovial cells treated with NMDA and ACPD. In kind it is cell-based, human. The note with it: 24 hours, NMDA (5 mM) and ACPD (5 mM), K252a (100 nM). As to the method: The cultured cell lines used in these studies were the human neuroblastoma clonal line, SHSY5Y, and the human synovial sarcoma clonal line, SW982, both available through the American Tissue Type Culture Collection (item number CRL 2266 and HTB-93, respectively). Cells were grown in Dulbecco's Modification of Eagles Medium (DMEM) without L-glutamine, with 4.5 grams/Liter glucose, and with 10% bovine fetal serum in a tissue culture incubator at 37° C. in a gaseous mixture of O2/CO2. Cells were routinely split as necessary to maintain proper cell density. Cells were removed from plates by adding TRYPSIN/EDTA in Hank's Balanced Salt solution. After cell counts, approximately 10,000 cells were plated per well in a culture dish. For experiments, the cells were plated into 35 mm Petri dishes or 6- or 24-well plates as needed.
For detection of released Tumor Necrosis Factor alpha (TNFα) and some western blot experiments, cells were exposed to the two glutamate agonists NMDA (5 mM) and ACPD (5 mM), in the presence or absence of the tyrosine kinase inhibitors Genistein […] or K252a (100 nM). […]
The release of the inflammatory mediator and initiator of inflammatory cascades, TNFα was measured by ELISA using a commercially available kit (R&D Quantikine, Catalog Number DTA50) specific for human TNFα. […]

For `O=c1c(-c2ccc(O)cc2)coc2cc(O)cc(O)c12` [Genistein, 5,7-Dihydroxy-3-(4-hydroxyphenyl)-4H-1-benzopyran-4-one; 4′,5,7-trihydroxy-isoflavone], in test [1], the joint circumference entry is “expected increases” and the joint temperature entry was “expected increases”. The “staining for NR1 in spinal cord” value in test [2] (4 hours, cycloheximide 100 mg/kg i.p.) is “about half that observed in arthritic rats and was not significantly increased above levels seen in normal rats; also recorded: greatly reduced expression increases for NR1 that were not significantly different from baseline”. For the same compound, the “nuclear localization of NR1” value in test [2] was “greatly reduced; also recorded: inhibited the shift in the pattern of NMDA NR1 protein staining”. Further, the “effect on NMDA currents” value in test [3] was “decreases NMDA currents”. Besides, in test [4], the “NMDA/ACPD-promoted release of TNFα” value is recorded as “completely abolished”.
